Source: the supplement of paper PMC11061612

Legend:
[1] = system: GP5d (Colorectal Carcinoma); test: combination Emax (second highest fraction inhibited in the dose matrix, 72 h); higher = more inhibition; extreme values may be limits of the assay
Summary of the method: (§1)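 Cell lines grown in DMEM/F12 or RPMI with 10% FBS were plated in 1536-well plates and held 24 hours at 37°C, 5% CO2 before 72 hours of exposure to two-drug dose matrices, with DMSO typically at 0.2%. CellTiter-Glo 2.0 luminescence gave viability, which was converted to inhibition. Vehicle wells were set to 0 and blank wells to 1. Combination Emax is the second-highest inhibition in the matrix, and Bliss excess is the observed combination effect minus the expected EA + EB − EA·EB, where EA and EB are the single-agent effects.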

[2] = system: PSN1 (Pancreatic Carcinoma); test: as above
Summary of the method: as §1

[3] = system: NB12 (Neuroblastoma); test: as above
Summary of the method: as §1

[4] = system: SK-MEL-2 (Melanoma); test: as above
Summary of the method: as §1

[5] = system: REH (B-Lymphoblastic Leukemia); test: as above
Summary of the method: as §1

[6] = system: HSC-39 (Gastric Carcinoma); test: as above
Summary of the method: as §1

[7] = system: RERF-LC-Sq1 (Squamous Cell Lung Carcinoma); test: as above
Summary of the method: as §1

[8] = system: LB996-RCC (Kidney Carcinoma); test: as above
Summary of the method: as §1

[9] = system: NB12 (Neuroblastoma); test: Bliss excess, mean over the matrix (fraction); higher = more synergy
Summary of the method: as §1

[10] = system: SK-MEL-2 (Melanoma); test: as above
Summary of the method: as §1
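For Bliss excess, mean over the matrix in this document: after 72 h of two-drug dosing.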

Compound	combination Emax [1]	combination Emax [2]	combination Emax [3]	combination Emax [4]	combination Emax [5]	combination Emax [6]	combination Emax [7]	combination Emax [8]	Bliss excess [9]	Bliss excess [10]
Cc1nc(Nc2ncc(C(=O)Nc3c(C)cccc3Cl)s2)cc(N2CCN(CCO)CC2)n1 [Dasatinib] + CC(=O)Nc1cccc(-n2c(=O)n(C3CC3)c(=O)c3c(Nc4ccc(I)cc4F)n(C)c(=O)c(C)c32)c1 [Trametinib] (first compound max 2 µM, 7x7, partner max 1 µM)	0.697	0.942	0.266	0.94	0.089	0.498	0.562	0.893	0.0319	-0.0571
Cn1cnc2c(F)c(Nc3ccc(Br)cc3Cl)c(C(=O)NOCCO)cc21 [Selumetinib] + CCN(CCO)CCCOc1ccc2c(Nc3cc(CC(=O)Nc4cccc(F)c4)[nH]n3)ncnc2c1 [AZD2811] (first compound max 10 µM, 7x7, partner max 1 µM)	0.842	0.708	0.607	0.722	0.604	0.903	0.535	0.343	-0.0881	-0.0538
C[C@@H](c1ccc2nccn2c1)n1nnc2ncc(-c3cnn(C)c3)nc21 [Savolitinib] + CC1(C)CCC(CN2CCN(c3ccc(C(=O)NS(=O)(=O)c4ccc(NCC5CCOCC5)c([N+](=O)[O-])c4)c(Oc4cnc5[nH]ccc5c4)c3)CC2)=C(c2ccc(Cl)cc2)C1 [Venetoclax] (first compound max 1 µM, 7x7, partner max 1 µM)	0.141	0.12	0.641	0.14	0.608	0.197	0.167	0.0725	-0.0062	-0.0295
COc1nnc2ccc(N3CCC(c4ccc(OCCN5CCN(C)C(=O)[C@H]5C)cc4)CC3)nn12 [AZD5153] + Cc1c2c(nn1C)CSCc1cc(n(C)n1)CSc1cc(c3ccccc3c1)OCCCc1c(C(=O)O)n(C)c3c-2c(Cl)ccc13 [AZD5991] (first compound max 1 µM, 7x7, partner max 1 µM)	0.961	0.506	0.942	0.984	0.965	1	0.602	0.491	0.0267	-0.0198
NC1(C(=O)N[C@@H](CCO)c2ccc(Cl)cc2)CCN(c2ncnc3[nH]ccc23)CC1 [Capivasertib] + COc1nnc2ccc(N3CCC(c4ccc(OCCN5CCN(C)C(=O)[C@H]5C)cc4)CC3)nn12 [AZD5153] (first compound max 10 µM, 7x7, partner max 1 µM)	0.873	0.256	0.985	0.578	0.987	0.916	1	0.72	0.0031	-0.0015
COc1nnc2ccc(N3CCC(c4ccc(OCCN5CCN(C)C(=O)[C@H]5C)cc4)CC3)nn12 [AZD5153] + C=CCn1c(=O)c2cnc(Nc3ccc(N4CCN(C)CC4)cc3)nc2n1-c1cccc(C(C)(C)O)n1 [AZD1775] (first compound max 1 µM, partner max 1 µM)	0.848	0.54	0.958	0.635	0.926	0.967	0.743	0.835	-0.0313	-0.116
CC(=O)c1c(C)c2cnc(Nc3ccc(N4CCNCC4)cn3)nc2n(C2CCCC2)c1=O [Palbociclib] + Cn1cnc2c(F)c(Nc3ccc(Br)cc3Cl)c(C(=O)NOCCO)cc21 [Selumetinib] (first compound max 10 µM, 7x7, partner max 10 µM)	0.768	0.702	0.276	0.805	0.448	0.667	0.512	0.285	0.0177	0.0374
Cn1cnc2c(F)c(Nc3ccc(Br)cc3Cl)c(C(=O)NOCCO)cc21 [Selumetinib] + C[C@@H]1COCCN1C2=NC(=NC(=C2)C3(CC3)[S@](=N)(=O)C)C4=C5C=CNC5=NC=C4 [AZD6738] (first compound max 10 µM, 7x7, partner max 10 µM)	0.861	0.736	0.39	0.806	0.684	0.994	0.786	0.556	-0.0545	-0.0161
COc1nnc2ccc(N3CCC(c4ccc(OCCN5CCN(C)C(=O)[C@H]5C)cc4)CC3)nn12 [AZD5153] + CC1(C)CCC(CN2CCN(c3ccc(C(=O)NS(=O)(=O)c4ccc(NCC5CCOCC5)c([N+](=O)[O-])c4)c(Oc4cnc5[nH]ccc5c4)c3)CC2)=C(c2ccc(Cl)cc2)C1 [Venetoclax] (first compound max 1 µM, 7x7, partner max 1 µM)	0.682	0.334	0.971	0.519	0.911	0.676	0.52	0.473	0.0928	-0.0035
NC1(C(=O)N[C@@H](CCO)c2ccc(Cl)cc2)CCN(c2ncnc3[nH]ccc23)CC1 [Capivasertib] + Cn1cnc2c(F)c(Nc3ccc(Br)cc3Cl)c(C(=O)NOCCO)cc21 [Selumetinib] (first compound max 10 µM, 7x7, partner max 10 µM)	0.807	0.772	0.504	0.843	0.492	0.852	0.917	0.678	0.0154	0.0662
CN(C)CCCOc1ccc(-c2ccc3ncc4c(c3c2)n(C2CCOCC2)c(=O)n4C)cn1 [AZD0156] + O=C(c1cc(Cc2n[nH]c(=O)c3ccccc23)ccc1F)N1CCN(C(=O)C2CC2)CC1 [Olaparib] (first compound max 3 µM, partner max 3 µM)	0.297	0.228	0.363	0.0599	0.457	0.413	0.418	0.38	0.0534	-0.045
C=CCn1c(=O)c2cnc(Nc3ccc(N4CCN(C)CC4)cc3)nc2n1-c1cccc(C(C)(C)O)n1 [AZD1775] + C1CN(CCC1(C(=O)N[C@@H](CCO)C2=CC=C(C=C2)Cl)N)C3=NC=NC4=C3C=CN4 [Capivasertib] (first compound max 3 µM, partner max 3 µM)	0.973	0.763	0.746	0.637	0.93	0.958	0.844	0.783	-0.0491	-0.0472
NC1(C(=O)N[C@@H](CCO)c2ccc(Cl)cc2)CCN(c2ncnc3[nH]ccc23)CC1 [Capivasertib] + CC(C)n1c(=O)n(C)c2cnc3cc(F)c(-c4ccc(OCCCN5CCCCC5)nc4)cc3c21 [AZD1390] (first compound max 10 µM, 7x7, partner max 0.3 µM)	0.669	0.256	0.504	0.176	0.461	0.432	0.841	0.645	0.0009	-0.0125
Cn1cnc2c(F)c(Nc3ccc(Br)cc3Cl)c(C(=O)NOCCO)cc21 [Selumetinib] + CC(C)n1c(=O)n(C)c2cnc3cc(F)c(-c4ccc(OCCCN5CCCCC5)nc4)cc3c21 [AZD1390] (first compound max 10 µM, 7x7, partner max 0.3 µM)	0.683	0.738	0.106	0.739	0.0781	0.201	0.402	0.181	-0.0215	-0.0602
CS(=O)(=O)CCNCc1ccc(-c2ccc3ncnc(Nc4ccc(OCc5cccc(F)c5)c(Cl)c4)c3c2)o1 [Lapatinib] + NC1(c2ccc(-c3nc4ccn5c(=O)[nH]nc5c4cc3-c3ccccc3)cc2)CCC1 [MK-2206] (first compound max 10 µM, 7x7, partner max 10 µM)	–	0.562	0.843	0.692	0.957	0.933	–	–	-0.0253	-0.0096
NC1(C(=O)N[C@@H](CCO)c2ccc(Cl)cc2)CCN(c2ncnc3[nH]ccc23)CC1 [Capivasertib] + CCN(CCO)CCCOc1ccc2c(Nc3cc(CC(=O)Nc4cccc(F)c4)[nH]n3)ncnc2c1 [AZD2811] (first compound max 10 µM, 7x7, partner max 1 µM)	0.718	0.371	0.783	0.0759	0.848	0.948	0.892	0.71	-0.0279	-0.0383
C[C@@H](c1ccc2nccn2c1)n1nnc2ncc(-c3cnn(C)c3)nc21 [Savolitinib] + Cc1c2c(nn1C)CSCc1cc(n(C)n1)CSc1cc(c3ccccc3c1)OCCCc1c(C(=O)O)n(C)c3c-2c(Cl)ccc13 [AZD5991] (first compound max 1 µM, 7x7, partner max 1 µM)	0.861	0.174	0.219	0.901	0.806	0.99	0.173	0.125	-0.0075	-0.023
